Source: PubChem BioAssay (NCI)
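The compound was tested at five concentrations on cells cultured in 96-well plates, with a 48-hour exposure period. GI50 marks 50% less growth. TGI is the concentration that stops growth completely.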

Columns and labels:
Test in all cases: growth of human tumour cells (NCI), 48 h
TK-10 renal = system: TK-10 renal
NCI-H226 lung = system: NCI-H226 lung
M14 melanoma = system: M14 melanoma
K-562 leukemia = system: K-562 leukemia
HCC-2998 colon = system: HCC-2998 colon
T-47D breast = system: T-47D breast
UACC-62 melanoma = system: UACC-62 melanoma
HCT-116 colon = system: HCT-116 colon
CAKI-1 renal = system: CAKI-1 renal
OVCAR-5 ovarian = system: OVCAR-5 ovarian
786-0 renal = system: 786-0 renal
OVCAR-8 ovarian = system: OVCAR-8 ovarian
SN12C renal = system: SN12C renal
LOX IMVI melanoma = system: LOX IMVI melanoma
PC-3 prostate = system: PC-3 prostate
SF-539 CNS = system: SF-539 CNS
SK-MEL-5 melanoma = system: SK-MEL-5 melanoma
HOP-92 NSCLC = system: HOP-92 NSCLC
A498 renal = system: A498 renal
HOP-62 NSCLC = system: HOP-62 NSCLC
NCI-H23 lung = system: NCI-H23 lung
SW-620 colon = system: SW-620 colon
RPMI-8226 leukemia = system: RPMI-8226 leukemia
SF-295 CNS = system: SF-295 CNS
UO-31 renal = system: UO-31 renal
NCI-H522 lung = system: NCI-H522 lung
COLO 205 colon = system: COLO 205 colon
ACHN renal = system: ACHN renal
DU-145 prostate = system: DU-145 prostate
OVCAR-4 ovarian = system: OVCAR-4 ovarian
NCI-H460 lung = system: NCI-H460 lung
HS 578T breast = system: HS 578T breast
HL-60(TB) leukemia = system: HL-60(TB) leukemia
U251 CNS = system: U251 CNS
MCF7 breast = system: MCF7 breast
EKVX NSCLC = system: EKVX NSCLC
CCRF-CEM leukemia = system: CCRF-CEM leukemia
IGROV1 ovarian = system: IGROV1 ovarian
SF-268 CNS = system: SF-268 CNS
KM12 colon = system: KM12 colon
MALME-3M melanoma = system: MALME-3M melanoma
MDA-MB-468 breast = system: MDA-MB-468 breast
HCT-15 colon = system: HCT-15 colon
A549 NSCLC = system: A549 NSCLC
SR leukemia = system: SR leukemia
HT29 colon = system: HT29 colon
MDA-MB-231 breast = system: MDA-MB-231 breast
SK-MEL-2 melanoma = system: SK-MEL-2 melanoma
MOLT-4 leukemia = system: MOLT-4 leukemia
SK-OV-3 ovarian = system: SK-OV-3 ovarian
BT-549 breast = system: BT-549 breast
MDA-MB-435 = system: MDA-MB-435
UACC-257 melanoma = system: UACC-257 melanoma
SNB-19 CNS = system: SNB-19 CNS
SK-MEL-28 melanoma = system: SK-MEL-28 melanoma
OVCAR-3 ovarian = system: OVCAR-3 ovarian
RXF 393 renal = system: RXF 393 renal

CN(C)c1nc(NCCNS(=O)(=O)c2ccc(C3=Nc4c(N)nc(N)nc4NC(c4ccc(C(F)(F)F)cc4)C3)cc2)nc(N2CCOCC2)n1 (centres undefined)
GI50 (TK-10 renal): 54.4 µM | TGI (TK-10 renal): > 100 µM | GI50 (NCI-H226 lung): 17.6 µM | TGI (NCI-H226 lung): > 100 µM | GI50 (M14 melanoma): 22 µM | TGI (M14 melanoma): 63.8 µM | GI50 (K-562 leukemia): 29.1 µM | TGI (K-562 leukemia): > 100 µM | GI50 (HCC-2998 colon): 20.2 µM | TGI (HCC-2998 colon): 46.4 µM | GI50 (T-47D breast): 21.3 µM | TGI (T-47D breast): > 100 µM | GI50 (UACC-62 melanoma): 16.4 µM | TGI (UACC-62 melanoma): 36.4 µM | GI50 (HCT-116 colon): 41.9 µM | TGI (HCT-116 colon): > 100 µM | GI50 (CAKI-1 renal): 25.9 µM | TGI (CAKI-1 renal): > 100 µM | GI50 (OVCAR-5 ovarian): 27 µM | TGI (OVCAR-5 ovarian): 95.9 µM | GI50 (786-0 renal): 20.8 µM | TGI (786-0 renal): > 100 µM | GI50 (OVCAR-8 ovarian): 59.5 µM | TGI (OVCAR-8 ovarian): > 100 µM | GI50 (SN12C renal): 35.7 µM | TGI (SN12C renal): > 100 µM | GI50 (LOX IMVI melanoma): 17.1 µM | TGI (LOX IMVI melanoma): 33.2 µM | GI50 (PC-3 prostate): 24.6 µM | TGI (PC-3 prostate): > 100 µM | GI50 (SF-539 CNS): 22.5 µM | TGI (SF-539 CNS): 87.9 µM | GI50 (SK-MEL-5 melanoma): 15.9 µM | TGI (SK-MEL-5 melanoma): 30.1 µM | GI50 (HOP-92 NSCLC): 7.48 µM | TGI (HOP-92 NSCLC): 48.3 µM | GI50 (A498 renal): 24.1 µM | TGI (A498 renal): 82.9 µM | GI50 (HOP-62 NSCLC): 50.7 µM | TGI (HOP-62 NSCLC): > 100 µM | GI50 (NCI-H23 lung): 37.6 µM | TGI (NCI-H23 lung): > 100 µM | GI50 (SW-620 colon): 46.9 µM | TGI (SW-620 colon): > 100 µM | GI50 (RPMI-8226 leukemia): 11.2 µM | TGI (RPMI-8226 leukemia): > 100 µM | GI50 (SF-295 CNS): 21.1 µM | TGI (SF-295 CNS): 83.7 µM | GI50 (UO-31 renal): > 100 µM | TGI (UO-31 renal): > 100 µM | GI50 (NCI-H522 lung): 51.7 µM | TGI (NCI-H522 lung): > 100 µM | GI50 (COLO 205 colon): 16.5 µM | TGI (COLO 205 colon): 35.5 µM | GI50 (ACHN renal): 64.4 µM | TGI (ACHN renal): > 100 µM | GI50 (DU-145 prostate): 72 µM | TGI (DU-145 prostate): > 100 µM | GI50 (OVCAR-4 ovarian): 37 µM | TGI (OVCAR-4 ovarian): > 100 µM | GI50 (NCI-H460 lung): 36.5 µM | TGI (NCI-H460 lung): > 100 µM | GI50 (HS 578T breast): 19.2 µM | TGI (HS 578T breast): > 100 µM | GI50 (HL-60(TB) leukemia): 27.4 µM | TGI (HL-60(TB) leukemia): 83.9 µM | GI50 (U251 CNS): 24.2 µM | TGI (U251 CNS): > 100 µM | GI50 (MCF7 breast): 18.1 µM | TGI (MCF7 breast): 81.3 µM | GI50 (EKVX NSCLC): 47.2 µM | TGI (EKVX NSCLC): > 100 µM | GI50 (CCRF-CEM leukemia): 25.9 µM | TGI (CCRF-CEM leukemia): > 100 µM | GI50 (IGROV1 ovarian): 27 µM | TGI (IGROV1 ovarian): > 100 µM | GI50 (SF-268 CNS): 19.9 µM | TGI (SF-268 CNS): > 100 µM | GI50 (KM12 colon): 37 µM | TGI (KM12 colon): > 100 µM | GI50 (MALME-3M melanoma): 19.9 µM | TGI (MALME-3M melanoma): 53.3 µM | GI50 (MDA-MB-468 breast): 13.7 µM | TGI (MDA-MB-468 breast): 30.9 µM | GI50 (HCT-15 colon): 30.9 µM | TGI (HCT-15 colon): > 100 µM | GI50 (A549 NSCLC): 51.3 µM | TGI (A549 NSCLC): > 100 µM | GI50 (SR leukemia): 18.1 µM | TGI (SR leukemia): > 100 µM | GI50 (HT29 colon): 19.8 µM | TGI (HT29 colon): 48.2 µM | GI50 (MDA-MB-231 breast): 16.9 µM | TGI (MDA-MB-231 breast): 44.4 µM | GI50 (SK-MEL-2 melanoma): 15.8 µM | TGI (SK-MEL-2 melanoma): 30.2 µM | GI50 (MOLT-4 leukemia): 17.3 µM | TGI (MOLT-4 leukemia): > 100 µM | GI50 (SK-OV-3 ovarian): 69.7 µM | TGI (SK-OV-3 ovarian): > 100 µM | GI50 (BT-549 breast): 13.8 µM | TGI (BT-549 breast): 31.8 µM | GI50 (MDA-MB-435): 34.2 µM | TGI (MDA-MB-435): > 100 µM | GI50 (UACC-257 melanoma): 20.4 µM | TGI (UACC-257 melanoma): 54.9 µM | GI50 (SNB-19 CNS): 30 µM | TGI (SNB-19 CNS): > 100 µM | GI50 (SK-MEL-28 melanoma): 34.1 µM | TGI (SK-MEL-28 melanoma): > 100 µM | GI50 (OVCAR-3 ovarian): 53.9 µM | TGI (OVCAR-3 ovarian): > 100 µM | GI50 (RXF 393 renal): 10.3 µM | TGI (RXF 393 renal): 45.5 µM
